# Measurements from patent US20080119412A1, “Polypeptides for Modulating Binding of Trp Channel Proteins and Trp- Associated Proteins” (NoNO Inc., priority 2003, published 2008).
# Residues, ends and D or L forms follow the SMILES beside them. No end group written: not given here. *: point of attachment. Biotin = O=C1N[C@H]2[C@H](CS[C@H]2CCCCC(=O)*)N1
# How the values were obtained:
# TIP1 d1 = target: T1, TIP1 d1 (Homo sapiens, UniProt O14907); test: G3 assay titration, GST-PDZ fusion / biotinylated peptide; format: binding
# T1 construct: made in house; host or cells: E. coli (DH5alpha, BL21 or JM109)
# T1 sequence (O14907 14-116): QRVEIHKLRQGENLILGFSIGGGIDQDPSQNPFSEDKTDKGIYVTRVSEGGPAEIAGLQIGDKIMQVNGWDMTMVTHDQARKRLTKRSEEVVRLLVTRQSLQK
# Method: (§1) The G3 assay is identical to the G0 assay with the following exceptions. The peptides are typically present at 0.1 μM rather than 20 μM. The peptides are also pre-incubated with the HRP-streptavidin prior to adding to the assay plate. In the G0 assay, free peptide is incubated with the PDZ proteins prior to the addition of the HRP-streptavidin. Thus, for the G0 assay one can lose signal if the bound peptide dissociates from the PDZ protein prior to the addition of the HRP-streptavidin. In the G3 modified assay the HRP-streptavidin/peptide complex is added to the plate in one step, thus increasing the likelihood that all the bound peptide will be bound to HRP-streptavidin. The G3 modified assay increases the chance of observing weak interactions.
# (§2) This example describes assays to identify binding between TRPM7 and PDZ domains. GST-PDZ fusions are produced that each contain an entire PDZ domain (or multiple PDZ domains), the collection encompassing approximately 90% of all PDZ domains identified in the human genome. (See Table 5 and Section V (PDZ Proteins and PL Protein Interactions Disclosure). Biotinylated peptide corresponding to 11 residues of Tat coupled to the C-terminal 9 amino acids of TRPM7 ([…]; SEQ ID NO:258) is synthesized and purified by HPLC.
# (§3) • Nunc MaxiSorp 96 well Immuno-plate, Nunc • PBS pH 7.4 (phosphate buffered saline, 8 g NaCl, 0.29 g KCl, 1.44 g Na2HPO4, 0.24 g KH2PO4, add H2O to 1 liter and pH 7.4; 0.2 μm filter) • Assay Buffer: 2% BSA in PBS (20 g of bovine serum albumin per liter PBS, fraction V, ICN Biomedicals, cat#IC15142983 • Goat anti-GST polyclonal Ab, stock 5 mg/ml, stored at 4° C., Amersham Pharmacia cat#27-4577-01 • Dilute 1:1000 in PBS, final concentration 5 μg/ml. • HRP-Streptavidin, 2.5 mg/2 ml stock stored at 4° C., Zymed cat#43-4323, dilute 1:2000 into Assay buffer, final concentration of […] • Wash Buffer, PBS • Biotinylated peptides (HPLC purified, stock solution stored in −20° C. freezer) • GST-PRISM proteins (stock stored at −80° C., after 1st thaw store in −10° C. freezer) • TMB (3,3′,5,5′, teramethylbensidine), tablets, Sigma cat.#T5525 • Per plate, dissolve 1 tablet in 1 ml DMSO, add 9 ml Citrate/Phosphate buffer pH 5.4 and 2 μL H2O2 • 0.1 M H2SO4, Sigma cat.#S1526 • 12-w multichannel pipettor & tips • 50 ml reagent reservoirs, Costar#4870 • 50, 15 ml polypropylene conical tubes • Costar Transtar 96 Costar #7605 • Transtar 96 Cartridge Costar #7610 • Molecular Devices microplate reader (450 & 650 nm filters) with SoftMax Pro software *When using reagents stored at or 4° C. or −20° C., remove & keep on ice
# (§4) • 1. Coat plate with 100 μl of 5 μg/ml anti-GST, overnight at 4° C. • 2. Dump contents of plate & out tap dry on paper towels • 3. Block with 200 μl Assay Buffer for 2 hrs at room temperature • 4. Prepare proteins at 5 μg/ml in Assay Buffer • 5. Wash 3× with cold PBS (4° C.), avoiding letting the plates dry out • 6. Add proteins at 50 μl per well, incubate 1 to 2 hrs at 4° C. • 7. Prepare peptides to desired concentration in Assay Buffer • 8. Wash 3× with cold PBS (4° C.), avoiding letting the plates dry out • 9. Add HRP-Streptavidin/peptide complex [prepared by incubating for 20 minutes at room temperature HRP-Streptavidin (1:2000) with the desired biotin-peptide concentration for 20 minutes at room temperature] at 50 μl per well on ice • 10. Place at room temperature for exactly 30 minutes • 11. Promptly wash 5× with PBS at room temperature • 12. Add 100 μl/well TMB substrate (write time on plate) • 13. Incubate in dark at room temperature for a maximum of 30 minutes • 14. Read plate at 25 minutes (650 nm), optional • 15. Stop reaction with 100 μl of 0.18 M H2SO4, 30 minutes after adding TMB • Take last reading at 450 nm soon after stopping reaction
# The G3 assay was performed on a subset of the PDZ domains as in Example II except that the concentration of peptide was 0.002 μM, […], 0.1 μM, 0.2 μM, 1 μM, and 2 μM. Data was fitted to the equation: […]
# TRPM2 = TRPM2 (Homo sapiens, UniProt O94759); conditions: binding to carboxy-terminal NUDT9 Nudix hydrolase domain; read-out: EC50, gating of TRPM2 channel; cited from earlier work
# neurons [1] = test: Oxygen-glucose deprivation (OGD) of neurons: ROS production, calcium uptake, cell death; format: cell-based; conditions: prolonged OGD, FIG. 7
# Method: The fraction of dead cells was determining by dividing the number of neurons expressing GFP which became stained with propidium iodide 20 h after OGD by the number of neurons expressing GFP at the beginning of the experiment. Data for each culture was obtained from counting cells in 3 high power microscope fields per experiment.
# TRPM7 = TRPM7 (Homo sapiens, UniProt Q96QT4); conditions: intracellular free; cited from earlier work
# ZO-1 d2 [2] = target: T2, ZO-1 d2 (Homo sapiens, UniProt Q07157, DEL264-264); test: G assay, peptide binding to GST-PDZ fusion (Table 11); conditions: Table 11, titrations or binding assays
# T2 construct: made in house; host or cells: E. coli (DH5alpha, BL21 or JM109)
# T2 sequence (Q07157 with tags, fused parts or gaps DEL264-264): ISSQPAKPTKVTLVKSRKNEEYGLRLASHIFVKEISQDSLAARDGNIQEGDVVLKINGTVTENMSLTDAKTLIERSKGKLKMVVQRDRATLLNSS
# Method: (§6) The binding of labeled PL peptide (e.g., as listed in TABLE 2 and TABLE 4) to this surface is then measured. In a preferred embodiment, the assay is carried out as follows:
# (§7) (1) A PDZ-domain polypeptide is bound to a surface, e.g. a protein binding surface. In a preferred embodiment, a GST/PDZ fusion protein containing one or more PDZ domains is bound to a polystyrene 96-well plate. […] In one embodiment, the GST/PDZ fusion protein is bound via an anti-GST antibody that is coated onto the 96-well plate. Adequate binding to the plate can be achieved when:
# (§8) (2) Biotinylated PL peptides are allowed to react with the surface by addition of 50 μl per well of 20 μM solution of the biotinylated peptide in PBS/BSA for 10 minutes at 4° C., followed by an additional 20 minute incubation at 25° C. The plate is washed 3 times with ice cold PBS.
# (§9) (3) The binding of the biotinylated peptide to the GST/PDZ fusion protein surface can be detected using a variety of methods and detectors known to one of skill in the art. In one embodiment, 100 μl per well of 0.5 μg/ml streptavidin-horseradish peroxidase (HRP) conjugate dissolved in BSA/PBS is added and allowed to react for 20 minutes at 4° C. The plate is then washed 5 times with 50 mM Tris pH 8.0 containing 0.2% Tween 20, and developed by addition of 100 μl per well of HRP-substrate solution (TMB, Dako) for 20 minutes at room temperature (RT). The reaction of the HRP and its substrate is terminated by addition of 100 μl per well of 1 M sulfuric acid, and the optical density (O.D.) of each well of the plate is read at 450 um.
# (§10) (4) Specific binding of a PL peptide and a PDZ domain polypeptide is determined by comparing the signal from the well(s) in which the PL peptide and PDZ domain polypeptide are combined, with the background signal(s). […] Typically a specific or selective reaction will be at least twice background signal, more typically more than 5 times background, and most typically 10 or more times the background signal. […] Correspondingly, a statistical test (e.g. a T-test) comparing repeated measurements of the signal with -repeated measurements of the background will result in a p-value <0.05, more typically a p-value <0.01, and most typically a p-value <0.001 or less. As noted, in an embodiment of the G assay, the signal from binding of a given PL peptide to immobilized (surface bound) GST polypeptide alone is one suitable negative control (sometimes referred to as B1). Because all measurement are done in multiples (i.e. at least duplicate) the arithmetic mean (or, equivalently, average.) of several measurements is used in determining the binding, and the standard error of the mean is used in determining the probable error in the measurement of the binding. The standard error of the mean of N measurements equals the square root of the following: the sum of the squares of the difference between each measurement and the mean, divided by the product of (N) and (N−1). Thus, in one embodiment, specific binding of the PDZ protein to the platebound peptide is determined by comparing the mean signal (“mean S”) and standard error of the signal (“SE”) for a particular PL-PDZ combination with the mean B1.
# INADL d3 [3] = target: T3, INADL d3 (Homo sapiens, UniProt Q8NI35); test: as above; conditions: Table 11, titrations or binding assays
# T3 construct: made in house; host or cells: E. coli (DH5alpha, BL21 or JM109)
# T3 sequence (Q8NI35 with tags, fused parts or gaps): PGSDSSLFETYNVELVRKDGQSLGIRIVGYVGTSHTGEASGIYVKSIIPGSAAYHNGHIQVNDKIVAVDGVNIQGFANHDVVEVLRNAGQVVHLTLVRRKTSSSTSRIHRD
# Method: as §6, §7, §8, §9, §10
# INADL d3 [4] = target: T3, INADL d3; test: G3 assay titration, GST-PDZ fusion / biotinylated peptide; format: binding
# Method: as §1, §2, §3, §4
# (§5) The G3 assay was performed using 0.1 μM peptide representing 11 amino acids of Tat fused to the final 9 amino acids of TRPM7 ([…]; SEQ ID NO:258). […]
# ZO-1 d2 [5] = target: T2, ZO-1 d2; test: as above; format: binding
# Method: as §1, §2, §3, §4, §5
# neurons [6] = test: Neuronal survival 20 h after NMDA challenge (FIG. 14); format: cell-based; conditions: 20 h after 1 h NMDA challenge; peptide applied immediately after the NMDA challenge
# Method: The sequence of Tat-9cTRPM7 is: [[…] or [[…]-[…]], whereby the first 11 residues correspond to the cell membrane transduction domain of the human immunodeficiency virus type 1 (HIV-1) Tat protein and the last 9 residues correspond to the last 9 amino acids of the C-terminus of human TRPM7 (accession Q96QT4). […] (A) Neuronal survival at 20 h in the indicated concentrations of Tat-9cTRPM7 in the absence of excitotoxic challenge. (B) Neuronal survival 20 h after challenging the cultures for 1 h with the indicated concentration of NMDA. Tat-9cTRPM7 was applied immediately after the NMDA challenge.
# The sequence of Tat-9cTRPM7 is: [[…]-[…]; SEQ ID NO:258], whereby the first 11 residues correspond to the cell-membrane transduction domain of the human immunodeficiency virus type 1 (HIV-1) Tat protein and the last 9 residues correspond to the last 9 amino acids of the C-terminus of human TRPM7 (accession Q96QT4). (A) Neuronal survival at 20 h in the indicated concentrations of Tat-9cTRPM7 in the absence of excitotoxic challenge. (B) Neuronal survival 20 h after challenging the cultures for 1 h with the indicated concentration of NMDA. Tat-9cTRPM7 was applied immediately after the NMDA challenge.
# Sequence of TRPM2 (O94759 whole entry, the tested form may be a part): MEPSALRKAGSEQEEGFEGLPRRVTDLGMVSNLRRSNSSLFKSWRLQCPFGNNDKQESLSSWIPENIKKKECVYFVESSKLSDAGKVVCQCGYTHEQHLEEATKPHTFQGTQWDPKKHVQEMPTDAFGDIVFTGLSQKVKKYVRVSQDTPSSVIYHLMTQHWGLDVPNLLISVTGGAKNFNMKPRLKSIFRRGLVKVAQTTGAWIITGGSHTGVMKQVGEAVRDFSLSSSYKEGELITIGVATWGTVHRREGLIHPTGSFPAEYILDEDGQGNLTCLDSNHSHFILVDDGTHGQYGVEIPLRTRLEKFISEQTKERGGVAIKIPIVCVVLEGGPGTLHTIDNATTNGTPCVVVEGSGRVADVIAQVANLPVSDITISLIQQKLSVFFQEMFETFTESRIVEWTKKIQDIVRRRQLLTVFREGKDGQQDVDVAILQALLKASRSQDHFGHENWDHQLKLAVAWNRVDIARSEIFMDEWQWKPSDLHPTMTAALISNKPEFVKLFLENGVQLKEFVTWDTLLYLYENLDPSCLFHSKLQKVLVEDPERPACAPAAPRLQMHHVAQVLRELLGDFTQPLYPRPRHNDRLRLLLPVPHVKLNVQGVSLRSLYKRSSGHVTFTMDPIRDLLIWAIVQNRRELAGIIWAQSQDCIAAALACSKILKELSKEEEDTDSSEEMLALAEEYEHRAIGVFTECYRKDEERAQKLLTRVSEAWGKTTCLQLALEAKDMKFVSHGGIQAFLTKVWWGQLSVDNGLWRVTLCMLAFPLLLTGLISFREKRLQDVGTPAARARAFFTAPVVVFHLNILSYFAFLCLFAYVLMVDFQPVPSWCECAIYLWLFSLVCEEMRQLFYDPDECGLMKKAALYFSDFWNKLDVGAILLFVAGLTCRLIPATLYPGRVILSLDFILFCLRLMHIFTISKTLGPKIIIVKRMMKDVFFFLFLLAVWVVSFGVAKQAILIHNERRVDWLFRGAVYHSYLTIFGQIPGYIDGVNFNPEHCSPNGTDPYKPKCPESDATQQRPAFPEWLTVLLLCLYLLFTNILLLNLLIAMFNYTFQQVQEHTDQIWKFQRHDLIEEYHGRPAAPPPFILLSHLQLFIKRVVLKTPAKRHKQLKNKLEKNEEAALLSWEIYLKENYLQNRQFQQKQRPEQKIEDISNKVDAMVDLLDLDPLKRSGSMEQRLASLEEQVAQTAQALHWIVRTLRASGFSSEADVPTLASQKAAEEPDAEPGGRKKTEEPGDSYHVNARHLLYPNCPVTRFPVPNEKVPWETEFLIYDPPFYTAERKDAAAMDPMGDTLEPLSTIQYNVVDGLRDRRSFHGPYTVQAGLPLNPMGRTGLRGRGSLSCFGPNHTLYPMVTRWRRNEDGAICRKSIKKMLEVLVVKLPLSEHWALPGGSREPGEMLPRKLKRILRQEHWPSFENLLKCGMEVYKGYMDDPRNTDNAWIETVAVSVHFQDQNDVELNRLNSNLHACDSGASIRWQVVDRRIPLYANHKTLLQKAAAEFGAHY
# Sequence of TRPM7 (Q96QT4 whole entry, the tested form may be a part): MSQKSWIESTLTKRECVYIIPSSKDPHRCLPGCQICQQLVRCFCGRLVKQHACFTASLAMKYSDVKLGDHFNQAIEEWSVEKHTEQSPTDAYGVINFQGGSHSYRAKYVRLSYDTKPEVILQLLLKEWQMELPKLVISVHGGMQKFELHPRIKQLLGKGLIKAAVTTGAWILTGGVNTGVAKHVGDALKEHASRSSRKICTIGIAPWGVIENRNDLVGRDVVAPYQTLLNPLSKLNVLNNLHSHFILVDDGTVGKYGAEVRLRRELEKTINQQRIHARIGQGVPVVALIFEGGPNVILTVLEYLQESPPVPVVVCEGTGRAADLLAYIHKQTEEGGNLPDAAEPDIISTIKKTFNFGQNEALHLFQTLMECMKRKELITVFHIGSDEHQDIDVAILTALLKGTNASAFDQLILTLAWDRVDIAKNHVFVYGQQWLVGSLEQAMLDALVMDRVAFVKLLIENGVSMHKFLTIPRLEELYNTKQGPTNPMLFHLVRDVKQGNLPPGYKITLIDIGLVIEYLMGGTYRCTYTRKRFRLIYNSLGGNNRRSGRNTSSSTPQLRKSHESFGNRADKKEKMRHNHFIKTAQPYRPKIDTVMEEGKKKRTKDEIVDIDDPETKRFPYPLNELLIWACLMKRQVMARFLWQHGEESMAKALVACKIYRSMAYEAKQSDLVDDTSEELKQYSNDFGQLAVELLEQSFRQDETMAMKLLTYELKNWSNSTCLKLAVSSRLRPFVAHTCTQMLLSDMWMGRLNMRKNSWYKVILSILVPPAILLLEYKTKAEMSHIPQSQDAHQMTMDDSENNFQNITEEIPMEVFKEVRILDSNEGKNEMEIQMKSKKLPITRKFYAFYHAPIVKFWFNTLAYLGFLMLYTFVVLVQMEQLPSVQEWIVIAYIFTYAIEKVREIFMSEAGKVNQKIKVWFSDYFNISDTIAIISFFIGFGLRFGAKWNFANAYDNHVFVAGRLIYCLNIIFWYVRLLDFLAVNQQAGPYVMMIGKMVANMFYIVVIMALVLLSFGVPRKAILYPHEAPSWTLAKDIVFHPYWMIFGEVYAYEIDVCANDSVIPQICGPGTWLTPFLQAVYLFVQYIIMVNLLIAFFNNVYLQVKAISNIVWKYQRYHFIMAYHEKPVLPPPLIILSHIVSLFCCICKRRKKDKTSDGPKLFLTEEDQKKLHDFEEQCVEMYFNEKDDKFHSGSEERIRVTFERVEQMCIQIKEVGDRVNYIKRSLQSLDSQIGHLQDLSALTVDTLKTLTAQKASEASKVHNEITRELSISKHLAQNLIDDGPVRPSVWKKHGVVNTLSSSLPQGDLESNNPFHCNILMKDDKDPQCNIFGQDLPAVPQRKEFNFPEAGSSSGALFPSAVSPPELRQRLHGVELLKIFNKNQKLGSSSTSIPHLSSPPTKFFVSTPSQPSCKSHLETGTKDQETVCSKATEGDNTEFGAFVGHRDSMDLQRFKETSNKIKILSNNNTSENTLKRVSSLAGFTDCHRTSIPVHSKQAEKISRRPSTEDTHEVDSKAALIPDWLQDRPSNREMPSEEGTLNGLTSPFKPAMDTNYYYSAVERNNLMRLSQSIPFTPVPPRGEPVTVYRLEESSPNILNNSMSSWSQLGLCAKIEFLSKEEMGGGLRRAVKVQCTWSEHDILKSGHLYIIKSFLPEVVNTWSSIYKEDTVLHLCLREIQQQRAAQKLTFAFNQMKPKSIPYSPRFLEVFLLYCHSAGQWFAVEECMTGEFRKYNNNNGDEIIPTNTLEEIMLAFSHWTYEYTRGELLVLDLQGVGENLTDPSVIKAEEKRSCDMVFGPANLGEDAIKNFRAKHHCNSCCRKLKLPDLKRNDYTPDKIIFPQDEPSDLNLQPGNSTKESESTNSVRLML
compound,measurement,setting,value
CC(C)[C@H](NC(=O)[C@H](CCC(=O)O)NC(=O)[C@@H](NC(=O)[C@H](CCC(=O)O)NC(=O)[C@H](CCCNC(=N)N)NC(=O)[C@H](Cc1ccccc1)NC(=O)[C@H](Cc1c[nH]cn1)NC(=O)[C@H](CCCCN)NC(=O)[C@H](CCC(=O)O)NC(=O)[C@H](CCCNC(=N)N)NC(=O)[C@H](CCCNC(=N)N)NC(=O)[C@H](CCCNC(=N)N)NC(=O)[C@H](CCC(N)=O)NC(=O)[C@H](CCCNC(=N)N)NC(=O)[C@H](CCCNC(=N)N)NC(=O)[C@H](CCCCN)NC(=O)[C@H](CCCCN)NC(=O)[C@H](CCCNC(=N)N)NC(=O)CNC(=O)[C@H](Cc1ccc(O)cc1)NC(=O)CCCC[C@@H]1SC[C@@H]2NC(=O)N[C@@H]21)[C@@H](C)O)C(=O)O [AA353] (Biotin-YGRKKRRQRRREKHFRETEV-OH),EC50,TIP1 d1,< 2 nM
Nc1ncnc2c1ncn2[C@@H]1O[C@H](COP(=O)(O)OP(=O)(O)OC[C@H]2OC(O)[C@H](O)[C@@H]2O)[C@@H](O)[C@H]1O (stereo partly drawn) [ADP ribose],EC50,TRPM2,100 µM
[Gd+3] [Gd^3+],survival of neurons,neurons [1],permit survival of neurons destined to die from prolonged OGD
[Mg+2] [Mg^2+],concentration inhibiting TRPM7,TRPM7,0.6 mM
C[C@H](NC(=O)[C@H](Cc1c[nH]c2ccccc12)NC(=O)[C@H](Cc1ccc(O)cc1)NC(=O)[C@H](CCCCN)NC(=O)[C@H](CCCNC(=N)N)NC(=O)[C@H](CC(=O)O)NC(=O)[C@@H](NC(=O)[C@H](CCCNC(=N)N)NC(=O)[C@H](CO)NC(=O)[C@H](CCCNC(=N)N)NC(=O)[C@H](CCCNC(=N)N)NC(=O)[C@H](CCCNC(=N)N)NC(=O)[C@H](CCC(N)=O)NC(=O)[C@H](CCCNC(=N)N)NC(=O)[C@H](CCCNC(=N)N)NC(=O)[C@H](CCCCN)NC(=O)[C@H](CCCCN)NC(=O)[C@H](CCCNC(=N)N)NC(=O)CNC(=O)[C@H](Cc1ccc(O)cc1)NC(=O)CCCC[C@@H]1SC[C@@H]2NC(=O)N[C@@H]21)[C@@H](C)O)C(=O)O [Peptide 1832] (Biotin-YGRKKRRQRRRSRTDRKYWA-OH; C-terminus assumed),PDZ domain bound,ZO-1 d2 [2],ZO-1 D2
same,PDZ domain bound,INADL d3 [3],INADL D3
same,EC50,INADL d3 [4],200 nM
same,ODmax (450 nm),"INADL d3 [4]; Table 10, titration of peptides with INADL d3",0.60
same,EC50,ZO-1 d2 [5],< 20 nM
same,ODmax (450 nm),"ZO-1 d2 [5]; Table 10, titration of peptides with ZO-1 d2",2.10
NC(=O)c1ccc[n+]([C@@H]2O[C@H](COP(=O)([O-])OP(=O)(O)OC[C@H]3O[C@@H](n4cnc5c(N)ncnc54)[C@H](O)[C@@H]3O)[C@@H](O)[C@H]2O)c1 [nicotinamide adenine dinucleotide],EC50,TRPM2,1000 µM
YGRKKRRQRRRSTNSVRLML [Tat-9cTRPM7],Neuronal survival,neurons [6],enhanced survival
